pKi: −log10 of the molar value. Structures can show the parent of a compound that is named as a salt.
Columns and labels:
human 5HT1A receptor [1] = biological target: T1, human 5HT1A receptor (Homo sapiens, UniProt P08908); assay: 5-HT1A Receptor Intrinsic Activity Assay (cAMP); format: cell-based; settings: reversal of forskolin (1 μM) stimulated cAMP in CHO cells stably transfected with human 5-HT1A receptor; RIA
T1 construct: expressed in transfected cells; host or cells: CHO cells, stably transfected
T1 sequence (P08908 1-422): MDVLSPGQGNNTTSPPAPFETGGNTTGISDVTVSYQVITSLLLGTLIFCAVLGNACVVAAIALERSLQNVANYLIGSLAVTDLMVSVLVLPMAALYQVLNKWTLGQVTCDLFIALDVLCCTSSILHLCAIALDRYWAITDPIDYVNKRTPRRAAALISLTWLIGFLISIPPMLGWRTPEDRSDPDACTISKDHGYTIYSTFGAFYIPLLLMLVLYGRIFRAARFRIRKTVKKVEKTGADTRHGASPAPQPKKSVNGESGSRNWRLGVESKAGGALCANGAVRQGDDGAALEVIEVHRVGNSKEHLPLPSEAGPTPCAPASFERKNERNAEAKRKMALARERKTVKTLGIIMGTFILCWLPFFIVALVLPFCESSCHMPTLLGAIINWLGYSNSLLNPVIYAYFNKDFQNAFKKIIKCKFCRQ
Description: 5-HT1A Receptor Intrinsic Activity Assay
The intrinsic activity of compounds of the present invention was established by testing the claimed compounds ability to reverse the stimulation of cyclic adenosinemonophosphate (cAMP) in CHO cells stably transfected with the human 5-HT1A receptor.
Stably transfected CHO cells were grown in DMEM containing 10% heat inactivated FBS and non-essential amino acids. The cells are plated at a density of […] per well in a 24 well plate and incubated for 2 days in a CO2 incubator. On the second day, the media is replaced with 0.5 mL treatment buffer (DMEM + 25 mM HEPES, 5 mM theophylline, 10 μM pargyline) and incubated for 10 minutes at 37° C. Wells are treated with forskolin (1 μM final concentration) followed immediately by the test compound (0.1 and 1 μM for initial screen) and incubated for an additional 10 minutes at 37° C. The reaction is terminated by removal of the media and addition of 0.5 mL ice cold assay buffer (supplied in the RIA kit). Plates are stored at −20° C. prior to assessment of cAMP formation by RIA. EC50 values are determined for the active test compounds. Compounds shown to have no agonist activities (Emax=0%) are further analyzed for their ability to reverse agonist induced activity. In separate experiments, 6 concentrations of antagonist are preincubated for 20 minutes prior to the addition of agonist and forskolin. Cells are harvested as described above. The cAMP kit is supplied by Amersham and the RIA is performed as per kit instructions, and calculations of IC50 performed by GraphPad Prism.

human 5HT1A receptor [2] = biological target: T1, human 5HT1A receptor; assay: 5-HT1A Receptor Binding Assay ([3H] 8-OH-DPAT displacement); settings: displacement of [3H] 8-OH-DPAT (1.5 nM) in CHO cells stably transfected with human 5HT1A receptor
Description: 5-HT1A Receptor Binding Assay
High affinity for the serotonin 5-HT1A receptor was established by testing the claimed compound's ability to displace [^3H] 8-OH-DPAT binding in CHO cells stably transfected with the human 5HT1A receptor. Stably transfected CHO cells are grown in DMEM containing 10% heat inactivated FBS and non-essential amino acids. Cells are scraped off the plate, transferred to centrifuge tubes, and washed twice by centrifugation (2000 rpm for 10 min., 4° C.) in buffer (50 mM Tris pH 7.5). The resulting pellets are aliquoted and placed at −80° C. On the day of assay, the cells are thawed on ice and resuspended in buffer. The binding assay is performed in a 96 well microtiter plate in a total volume of 250 μL. Non-specific binding is determined in the presence of […], final ligand concentration is 1.5 nM. Following a 30 minute incubation at room temperature, the reaction is terminated by the addition of ice cold buffer and rapid filtration through a GF/B filter presoaked for 30 minutes in 0.5% PEI. Compounds are initially tested in a single point assay to determine percent inhibition at […], and Ki values are determined for the active compounds.

| melting point [°C] | Structure (SMILES) | Emax (human 5HT1A receptor [1]) [%] | pKi (human 5HT1A receptor [2]) |
| --- | --- | --- | --- |
| – | COc1ccccc1N1CCN(CC2CCNCC2)CC1 [Example 1, 1-(2-Methoxy-phenyl)-4-piperidin-4-ylmethyl-piperazine] | 0 | – |
| – | COc1ccccc1N1CCN(CC2CCCN(Cc3ccccc3)C2)CC1 (centres unmarked) [Example 9, 1-(1-Benzyl-piperidin-3-ylmethyl)-4-(2-methoxy-phenyl)-piperazine] | 79 | 7.85 |
| – | COc1ccccc1N1CCN(CC2CCCNC2)CC1 (centres unmarked) [Example 6, 1-(2-Methoxy-phenyl)-4-piperidin-3-ylmethyl-piperazine] | 0 | 8.70 |
| > 240 | O=C(C1CCNCC1)N1CCN(c2cccc3[nH]ccc23)CC1 (as salt: HCl) [Example 11, [4-(1H-Indol-4-yl)-piperazin-1-yl]-piperidin-4-yl-methanone] | – | – |
| – | COc1ccccc1N1CCN(CC2CCN(CC3CCCCC3)CC2)CC1 [Example 3] | 89 | 8.08 |

Source: patent US20010014680A1 (priority 1998, published 2001)
